Assay results published in patent publication US20130109049A1, “Method of Establishing a Fungal Nail Infection” (NOVABIOTICS LIMITED, priority 2009, published 2013).

How the values were obtained:
[1] = system: T. interdigitale NCPF0335; experiment: Ex vivo human nail fragment model, prevention of infection; assay type: cell-based, Trichophyton interdigitale; settings: Experiment 8
Source text: Six nail fragments were obtained. Three were assigned to each of two different infection prevention protocols, involving daily application of 2 different vehicle solutions, each containing a control and 3 different concentrations of Novexatin® (NP213). These vehicle solutions were: 50% (w/v) PEG 8000, and 50% (w/v) PEG 8000 plus 20% (w/v) urea. The concentrations of Novexatin® (NP213) studied were 0% (control), 1% (Novexatin® 1), 5% (Novexatin® 2) and 10% (Novexatin® 3) (w/v). The solutions were applied at a volume of 10 μl/cm^2, corrected for the surface area of the different nail fragments as described above. The applied solution was spread over the dorsal side of the nail, to mimic the intended clinical treatment and the ventral side of the nail rested on the agar surface. Each time the nails were contacted with the vehicle solutions, they were transferred to a new sterile Petri dish containing PBS agar to minimise any build-up of fungal growth on the agar. Nail fragments were contacted with the vehicle solutions daily for 7 days. Following such contact, each nail fragment was contacted with 10 μl of a spore suspension of T. interdigitale NCPF0335 which was prepared as described above. The spore suspension was applied to the ventral side of the nail (i.e. the side next to the skin in situ). […]

[2] = system: four clinical isolates of Trichophyton spp.; experiment: In vitro MIC testing of clinical isolates; assay type: cell-based
Source text: However, this difference in activity is not reflected in human nail tissue, which should be considered a more appropriate model for activity testing for antimicrobials of this type.

[3] = system: Trichophyton rubrum strain NCPF0118; experiment: Ex vivo human nail fragment model, treatment of established infection (cfu recovered); assay type: cell-based
Candida = experiment: Ex vivo human nail fragment model, treatment of Candida infection; assay type: cell-based; settings: Experiments 6 and 7; 10% (w/v); 14 d or 28 d, daily
Source text: (§1) Trichophyton rubrum strain NCPF0118 was obtained from the National Collection of Pathogenic Fungi, Bristol, UK. Clinical isolates of T. rubrum DM2006 1661, T. rubrum DM2006 1358, T. mentagrophytes DM2006 1503, T. mentagrophytes DM2006 1498 were isolated from patients suffering a range of tinea infections and were purchased from Professor Michel Monod (Service de Dermatologie, Université de Lausanne, Switzerland). Clinical isolates of Candida samples were also obtained from patients suffering from Candidal infection.
The procedure was carried out as described for Example 1 above with modifications to the vehicle, and fungal strains used. Each nail was inoculated with 10 μl of a spore suspension of Candida. Following inoculation the nails were treated with 10% (w/v) Novexatin® (NP213) in a vehicle solution of 50% (w/v) PEG 8000 plus 20% (w/v) urea; 10% (w/v) NP339 in a vehicle solution of 50% (w/v) PEG 8000 plus 20% (w/v) urea; 10% (w/v) NP339 in a vehicle solution of water; a control solution of 50% (w/v) PEG 8000 plus 20% (w/v) urea; a control solution of water; a solution of 16 μg/ml Itraconazole® and 1.6% (w/v) DMSO in a vehicle solution of water and a control solution of 1.6% (w/v) DMSO. As for Experiment 1 above, nail fragments were treated daily for up to 28 days. […]
At the end of the treatment period, the nail fragments were placed in sterile 2 ml microcentrifuge tubes containing 450 μl of a suspension broth consisting of Sabouraud's Liquid Medium, pH 5.6, containing approximately 100 mg of sterile zirconia beads (0.5 mm diameter). […] Colonies were counted on dishes that contained between 20 and 200 colonies in total, and the total number of cfu present in each sample was calculated. […] The counts were corrected for the surface area of the nails studied to give cfu/cm^2, transformed to log10 and means and standard errors of the mean were calculated using GraphPad Prism 4 (GraphPad, San Diego, Calif.). […] When very low numbers of colonies were detected, as in Experiment 3, the calculated cfu values are shown in order to indicate trends.

[4] = system: clinical isolates T. rubrum DM 2006 1661, T. rubrum DM 2006 1358, T. mentagrophytes DM 2006 1503, T. mentagrophytes DM 2006 1498; experiment: Ex vivo human nail fragment model, treatment, clinical isolates of Trichophyton spp.; assay type: cell-based; settings: Experiment 3
Source text: as §1
The experiment was performed as described in Experiment 1 with modifications relating to the vehicle, concentrations and fungal strains used. […]
At the end of the treatment period, the nail fragments were placed in sterile 2 ml microcentrifuge tubes containing 450 μl of a suspension broth consisting of Sabouraud's Liquid Medium, pH 5.6, containing approximately 100 mg of sterile zirconia beads (0.5 mm diameter). […] Colonies were counted on dishes that contained between 20 and 200 colonies in total, and the total number of cfu present in each sample was calculated. […] The counts were corrected for the surface area of the nails studied to give cfu/cm^2, transformed to log10 and means and standard errors of the mean were calculated using GraphPad Prism 4 (GraphPad, San Diego, Calif.). […]

7 to 200-mer (SEQ ID NO: 3) polyarginine [Novexatin® (NP213)]
fungal growth on pre-treated nail fragments ([1]; pre-treated daily for 7 days (1%, 5%, 10% w/v), after 24 hours from spore contact): no fungal growth
fungal growth on pre-treated nail fragments ([1]; up to 14 days after contact with spore suspension): No fungal growth was observed
susceptibility of clinical isolates compared to T. rubrum NCPF0118 [2]: less susceptible
killing of T. rubrum NCPF0118 ([3]; 10% (w/v) in 50% (w/v) PEG 8000 vehicle, 28 d of treatment): > 99.9%
fungal colonies isolated from nail fragments ([3]; Experiment 1, 10% (w/v), both presence and absence of urea, daily 28 days): no colonies were isolated
effect of treatment on fungal survival (dose dependence) ([3]; Experiment 2, 0%, 2.5%, 5%, 10% (w/v) in 50% PEG 8000 + 20% urea): dose-dependent effect
reduction in fungal survival ([3]; Experiment 2, 2.5% and 5.0% (w/v), daily): significant reductions in fungal survival
reduction in fungal survival ([3]; Experiment 2, 2.5%, 5.0% and 10.0% (w/v), alternate days): the reduction in fungal survival was significant
reduction of fungal survival relative to Experiment 1 ([3]; Experiment 2, 5% (w/v), difference not statistically significant): less effective in reducing fungal survival than observed in Experiment 1
fungal colonies recovered ([3]; Experiment 2, 10% (w/v) applied daily, PEG 8000 + 20% urea): no fungal colonies were recovered
decrease in survival of the fungus compared to controls ([3]; Experiment 2, 10% (w/v) applied on alternate days): ~3 log10
fungal colonies recovered ([3]; Experiment 2, 10% (w/v) applied on alternate days, PEG 8000 + 20% urea): small numbers of colonies were recovered
visual examination of nail fragments ([3]; Experiment 2, after 28 d treatment, versus vehicle alone (FIG. 7)): no visual evidence of fungal infection
effect of simulated washing on antifungal efficacy ([3]; Experiment 4, nail surface wiped with sterile water before application): did not affect the antifungal efficacy
fungal colonies recovered ([3]; Experiment 4, washed or unwashed nail fragments, 28 days): No fungal colonies were recovered
recoverable fungal growth after treatment (Candida): no recoverable fungal growth
effect on survival of clinical isolates (dose dependence) ([4]; 0%, 5%, 10% (w/v) in 50% PEG 8000 + 20% urea): dose-dependent
effectiveness of treatment compared with T. rubrum NCPF0118 ([4]; four clinical isolates): as effective as that observed when T. rubrum NCPF0118 was used
